# Measurements published in patent US20110311601A1, “ANTIMICROBIAL MEDICAL DEVICES” (priority 2010, published 2011).
# Where no end group is shown, it is not given here.
# Assays:
# Experiment in all cases: micro-dilution assay (MBC, LD90)
# Format in all cases: cell-based
# [1] = test system: Acinetobacter johnsonii ATCC 17909
# Description: (§1) The anti-bacterial activity of hβD2 was tested by a micro-dilution assay. Bacteria and fungi were streaked from a glycerol stock onto a Brain Heart Infusion (BHI) agar plate (3.7% w/v BHI Bouillon, 1.5% w/v Agar), grown overnight at 37° C. and 30° C., respectively and subsequently used to inoculate 40 ml of 3.7% w/v BHI Bouillon without any antibiotics in 100 ml flasks. Fresh cells were harvested by centrifugation at 16000 rpm for 10 min and washed twice with 10 mM sodium phosphate buffer, pH 7.2. The optical density was adjusted to 10^4 cells/ml. For anti-bacterial testing hβD2 was incubated in one well of a microtiter plate containing 100 μl of the bacterial suspension. Therefore, ten microlitres of hβD2 solution with a range of final concentrations tested from 0.0125 up to and including 100 mg/l was added to the bacterial suspension and incubated at 37° C. and 30° C., respectively for 2 h before colony forming units were determined. Colony forming units (CFU) were determined after plating 100 μl of a 1:100 dilution of the bacterial suspension on petri dishes with BHI medium and incubating them overnight at 37° C. For every group of the hβD2 added samples and the controls, 5 independent anti-bacterial assays were performed. A control (NC) of bacterial growth was examined for every independent assay. The number of CFU on the control (consisting of a single petri dish) was set to 0% bactericidal activity. The reduction in the CFU resulting from the anti-bacterial activity of hβD2 was related to the absolute CFU of the control within every independent assay. This value, given as a percentage of the bacterial “killing” activity, was used to describe the antibacterial activity. This kind of normalisation of the antibacterial data was performed for every experimental group.
# (§2) The antibacterial activity of hβD2 were given either as minimum bactericidal concentration (MBC), i.e., the minimum concentration of hβD2 in μg/ml which is required to kill 99.9% of the bacteria or fungi or as lethal dose (LD90), i.e., the concentration of hβD2 in μg/ml which is lethal for 90% of bacteria or fungi.
# [2] = test system: Acinetobacter junii ATCC 17908
# Description: as §1, §2
# [3] = test system: Burkholderia cepacia ATCC 25416
# Description: as §1, §2
# [4] = test system: Candida glabrata UR 5836/02 (wild-type)
# Description: as §1, §2
# [5] = test system: Citrobacter freundii NCTC 9750
# Description: as §1, §2
# [6] = test system: E. coli (ESBL 1) UR 2884/99 (wild-type)
# Description: as §1, §2
# [7] = test system: E. coli (ESBL 9) UR 2217/03 (wild-type)
# Description: as §1, §2
# [8] = test system: Enterococcus faecalis ATCC 51299 VRE
# Description: as §1, §2
# [9] = test system: Enterococcus faecium (VRE) W 354 (wild-type)
# Description: as §1, §2
# [10] = test system: Enterococcus faecium (VRE) W 356 (wild-type)
# Description: as §1, §2
# [11] = test system: Klebsiella pneumoniae (ESBL) CF 7 (wild-type)
# Description: as §1, §2
# [12] = test system: Prevotella intermedia ATCC 25611
# Description: as §1, §2
# [13] = test system: Proteus mirabilis ATCC 9240
# Description: as §1, §2
# [14] = test system: Proteus mirabilis UR 1354/03 (wild-type)
# Description: as §1, §2
# [15] = test system: Proteus mirabilis UR 1536/03 (wild-type)
# Description: as §1, §2
# [16] = test system: Providencia rettgeri NCTC 7475
# Description: as §1, §2
# [17] = test system: Providencia stuartii NCTC 10318
# Description: as §1, §2
# [18] = test system: Pseudomonas aeruginosa ATCC 11440
# Description: as §1, §2
# [19] = test system: Pseudomonas aeruginosa ATCC 11446
# Description: as §1, §2
# [20] = test system: Pseudomonas aeruginosa ATCC 39324
# Description: as §1, §2
# [21] = test system: Saccharomyces cerevisiae ATCC 9763
# Description: as §1, §2
# [22] = test system: Serratia marcescens Mero 060/148 (wild-type)
# Description: as §1, §2
# [23] = test system: Staphylococcus aureus (MRSA 344) (wild-type)
# Description: as §1, §2
# [24] = test system: Staphylococcus aureus (MRSA 355) (wild-type)
# Description: as §1, §2
# [25] = test system: Streptococcus mutans ATCC 35668
# Description: as §1, §2
# [26] = test system: Streptococcus pneumoniae ATCC 33400
# Description: as §1, §2
substance,measurement,setting,value
"human β-defensin-2 (GIGDPVTCLKSGAICHPVFCPRRYKQIGTCGLPGTKCCKKP; ends and bridges not checked; cysteine pairing not given here) [hβD2, recombinant hβD2]",LD 90 = μg/ml 90% killing,[1],0.39 µg/mL
same,MBC = μg/ml 99.9% killing,[1],1.56 µg/mL
same,LD 90 = μg/ml 90% killing,[2],3.125 µg/mL
same,MBC = μg/ml 99.9% killing,[2],12.5 µg/mL
same,LD 90 = μg/ml 90% killing,[3],100 µg/mL
same,MBC = μg/ml 99.9% killing,[3],>100 µg/mL
same,LD 90 = μg/ml 90% killing,[4],6.25 µg/mL
same,MBC = μg/ml 99.9% killing,[4],50 µg/mL
same,LD 90 = μg/ml 90% killing,[5],12.5 µg/mL
same,MBC = μg/ml 99.9% killing,[5],50 µg/mL
same,LD 90 = μg/ml 90% killing,[6],3.125 µg/mL
same,MBC = μg/ml 99.9% killing,[6],12.5 µg/mL
same,LD 90 = μg/ml 90% killing,[7],12.5 µg/mL
same,MBC = μg/ml 99.9% killing,[7],25 µg/mL
same,LD 90 = μg/ml 90% killing,[8],50 µg/mL
same,MBC = μg/ml 99.9% killing,[8],100 µg/mL
same,LD 90 = μg/ml 90% killing,[9],50 µg/mL
same,MBC = μg/ml 99.9% killing,[9],100 µg/mL
same,LD 90 = μg/ml 90% killing,[10],50 µg/mL
same,MBC = μg/ml 99.9% killing,[10],100 µg/mL
same,LD 90 = μg/ml 90% killing,[11],25 µg/mL
same,MBC = μg/ml 99.9% killing,[11],50 µg/mL
same,LD 90 = μg/ml 90% killing,[12],3.125 µg/mL
same,MBC = μg/ml 99.9% killing,[12],3.125 µg/mL
same,LD 90 = μg/ml 90% killing,[13],100 µg/mL
same,MBC = μg/ml 99.9% killing,[13],>100 µg/mL
same,LD 90 = μg/ml 90% killing,[14],100 µg/mL
same,MBC = μg/ml 99.9% killing,[14],>100 µg/mL
same,LD 90 = μg/ml 90% killing,[15],100 µg/mL
same,MBC = μg/ml 99.9% killing,[15],>100 µg/mL
same,LD 90 = μg/ml 90% killing,[16],100 µg/mL
same,MBC = μg/ml 99.9% killing,[16],>100 µg/mL
same,LD 90 = μg/ml 90% killing,[17],100 µg/mL
same,MBC = μg/ml 99.9% killing,[17],>100 µg/mL
same,LD 90 = μg/ml 90% killing,[18],12.5 µg/mL
same,MBC = μg/ml 99.9% killing,[18],12.5 µg/mL
same,LD 90 = μg/ml 90% killing,[19],12.5 µg/mL
same,MBC = μg/ml 99.9% killing,[19],12.5 µg/mL
same,LD 90 = μg/ml 90% killing,[20],12.5 µg/mL
same,MBC = μg/ml 99.9% killing,[20],25 µg/mL
same,LD 90 = μg/ml 90% killing,[21],3.125 µg/mL
same,MBC = μg/ml 99.9% killing,[21],25 µg/mL
same,LD 90 = μg/ml 90% killing,[22],50 µg/mL
same,MBC = μg/ml 99.9% killing,[22],100 µg/mL
same,LD 90 = μg/ml 90% killing,[23],100 µg/mL
same,MBC = μg/ml 99.9% killing,[23],100 µg/mL
same,LD 90 = μg/ml 90% killing,[24],25 µg/mL
same,MBC = μg/ml 99.9% killing,[24],100 µg/mL
same,LD 90 = μg/ml 90% killing,[25],100 µg/mL
same,MBC = μg/ml 99.9% killing,[25],>100 µg/mL
same,LD 90 = μg/ml 90% killing,[26],25 µg/mL
same,MBC = μg/ml 99.9% killing,[26],50 µg/mL
